In paper PMC7413254 (Nature Communications, 2020):
Changes are numbered by the printed parent chain. Where “and” joins values, the source holds several entries; their conditions need not be identical. Equal values may be shown once. Read-outs that look alike come from different tables or passages of the source.

Legend:
[1] = molecular target: T1, PfCRT^3D7 in C2^GC03 parasites (Plasmodium falciparum, UniProt Q8IBZ9); experiment: P. falciparum H+-efflux assay (rate of DV alkalinisation after concanamycin A); type: cell-based; conditions: C2GC03; test solute 10 μM
T1 construct: PfCRT also functions as a peptide transporter within its native environment of the DV membrane; expressed in transfected cells; host or cells: P. falciparum pfcrt transfectant line C2^GC03 (saponin-isolated trophozoites)
T1 sequence (Q8IBZ9 1-424): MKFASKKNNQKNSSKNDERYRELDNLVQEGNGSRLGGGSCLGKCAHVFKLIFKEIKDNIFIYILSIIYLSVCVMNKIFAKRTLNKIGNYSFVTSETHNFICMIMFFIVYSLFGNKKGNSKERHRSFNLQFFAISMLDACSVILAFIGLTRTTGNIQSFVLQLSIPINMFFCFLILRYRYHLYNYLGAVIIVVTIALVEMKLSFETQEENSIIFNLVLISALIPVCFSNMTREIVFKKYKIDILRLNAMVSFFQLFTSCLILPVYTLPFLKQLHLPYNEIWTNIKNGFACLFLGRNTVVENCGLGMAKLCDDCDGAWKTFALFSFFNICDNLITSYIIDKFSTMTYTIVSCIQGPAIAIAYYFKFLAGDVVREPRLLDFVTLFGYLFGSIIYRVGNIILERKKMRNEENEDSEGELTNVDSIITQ

[2] = molecular target: T2, PfCRT^Dd2 in C4^Dd2 parasites (Plasmodium falciparum, UniProt Q8IBZ9, A220S/I356T/K76T/M74I/N326S/N75E/Q271E/R371I); experiment: as above; type: cell-based; conditions: C4Dd2; test solute 10 μM
T2 construct: PfCRT also functions as a peptide transporter within its native environment of the DV membrane; expressed in transfected cells; host or cells: P. falciparum pfcrt transfectant line C4^Dd2 (saponin-isolated trophozoites)
T2 sequence (Q8IBZ9 1-424 M74I/N75E/K76T/A220S/Q271E/N326S/I356T/R371I): T1 sequence (Q8IBZ9 1-424) with M74I, N75E, K76T, A220S, Q271E, N326S, I356T, R371I

C2^GC03 parasites = experiment: P. falciparum proliferation assay; type: cell-based; conditions: Plasmodium falciparum
Experimental: (§1) Parasite proliferation was measured in 96-well plates using a fluorescent DNA-intercalating dye[68],[69]. Synchronous ring-stage parasite cultures (~1% haematocrit and 1% parasitaemia) were incubated with different concentrations of the test compound for 72 h at 37 °C and under reduced O2 conditions. The assay was terminated by freezing and thawing the samples, after which 100 μL of SYBR Safe DNA Gel Stain (Molecular Probes; 0.2 μL/mL) in a lysis buffer (20 mM Tris-HCl, 5 mM EDTA, 0.008% (w/v) saponin and 0.08% (v/v) Triton X-100; pH 7.5) was added to each well. The fluorescence from each well was measured using a Tecan Infinite M1000 PRO microplate reader (excitation wavelength 490 nm; emission wavelength 520 nm). The fluorescence values for the wells containing the highest concentration of the compound were averaged and this value was then subtracted from each of the well values obtained for that 96-well plate. The level of parasite proliferation in the presence of each compound concentration was expressed as a percentage of the proliferation measured in the absence of the compound. The IC50s were determined in SigmaPlot Windows Version 11.0 by a least-squares fit of the equation y = a/[1 + ([compound]/IC50)^c] to the data, where y is the percent parasite proliferation, a is the maximum change in the percent parasite proliferation, and c is a fitted constant. In all cases, five independent experiments were performed (on different days), and within each experiment measurements were averaged from three replicates.

3D7 strain = experiment: P. falciparum proliferation assay; type: cell-based, Plasmodium falciparum
Experimental: as §1

7G8 strain = experiment: P. falciparum proliferation assay; type: cell-based, Plasmodium falciparum
Experimental: as §1

C4^Dd2 parasites = experiment: P. falciparum proliferation assay; type: cell-based, Plasmodium falciparum
Experimental: as §1

C6^7G8 parasites = experiment: P. falciparum proliferation assay; type: cell-based, Plasmodium falciparum
Experimental: as §1

[3] = molecular target: T3, PfCRT^7G8 in C6^7G8 parasites (Plasmodium falciparum, UniProt Q8IBZ9, A220S/C72S/I351M/I356L/K76T/N326D); experiment: P. falciparum H+-efflux assay (rate of DV alkalinisation after concanamycin A); type: cell-based; conditions: C67G8; test solute 10 μM
T3 construct: PfCRT also functions as a peptide transporter within its native environment of the DV membrane; expressed in transfected cells; host or cells: P. falciparum pfcrt transfectant line C6^7G8 (saponin-isolated trophozoites)
T3 sequence (Q8IBZ9 1-424 C72S/K76T/A220S/N326D/I351M/I356L): T1 sequence (Q8IBZ9 1-424) with C72S, K76T, A220S, N326D, I351M, I356L

Dd2 strain = experiment: P. falciparum proliferation assay; type: cell-based, Plasmodium falciparum
Experimental: as §1

non-expressing oocytes = type: cell-based, Xenopus laevis
Experimental: (§2) Measurements of the cis-inhibition of [^3H]CQ transport via PfCRT^Dd2 or PfCRT^Ecu1110 by a test solute (data presented in Fig. 1 and Supplementary Data 1,2) were performed on oocytes three days post-cRNA-injection[15],[21]. Ten oocytes were washed twice with the relevant ND96 buffer. The assay commenced with the addition of ND96 buffer supplemented with 0.25 μM [^3H]CQ, 15 μM unlabelled CQ, and the unlabelled solute under study (at a concentration specified in the figure legends and Supplementary Data 1, 2). The assay was terminated by removing the reaction buffer and washing the oocytes with ice-cold ND96 buffer. The oocytes were lysed in 10% (w/v) sodium dodecyl sulfate (SDS) and the radioactivity accumulated within each oocyte was measured with a MicroBeta^2 microplate liquid scintillation analyser (PerkinElmer).
(§3) Measurements of the uptake or efflux of a number of other radiolabelled compounds (Fig. 3k; Supplementary Fig. 3) were performed using the methods described above for [^3H]CQ and [^3H]VF-6, respectively.

PfNT1 = molecular target: T4, PfNT1 (Plasmodium falciparum, UniProt Q8IDM6); type: cell-based
T4 construct: expressed in transfected cells; host or cells: Xenopus laevis oocytes (stage V-VI), cRNA-injected
Experimental: as §2, §3

[4] = 72 h, read-out: IC50 (μM), parasite proliferation, + 1 μM VP, SEM
[5] = C2GC03, 72 h, 37 °C, SYBR Safe, mean ± SEM, n = 5, read-out: IC50 (μM), parasite proliferation, Control
[6] = Plasmodium falciparum, 3D7, 72 h, 37 °C, SYBR Safe, mean ± SEM, n = 5, read-out: IC50 (μM), parasite proliferation, Control
[7] = read-out: IC50 (μM), parasite proliferation, + 1 μM VP, SEM
[8] = Plasmodium falciparum, 72 h, read-out: IC50 (μM), parasite proliferation, Control, SEM
[9] = read-out: IC50 (μM), parasite proliferation, + 1 μM VP, 7G8, + 1 μM verapamil, 72 h, mean ± SEM, n = 5
[10] = Plasmodium falciparum, DD2, C4Dd2, 72 h, 37 °C, SYBR Safe, mean ± SEM, n = 5, read-out: IC50 (μM), parasite proliferation, Control
[11] = Plasmodium falciparum, C67G8, 72 h, 37 °C, SYBR Safe, mean ± SEM, n = 5, read-out: IC50 (μM), parasite proliferation, Control
[12] = read-out: IC50 (μM), parasite proliferation, + 1 μM VP, C67G8, + 1 μM verapamil, 72 h, mean ± SEM, n = 5

T4 sequence (Q8IDM6 whole entry): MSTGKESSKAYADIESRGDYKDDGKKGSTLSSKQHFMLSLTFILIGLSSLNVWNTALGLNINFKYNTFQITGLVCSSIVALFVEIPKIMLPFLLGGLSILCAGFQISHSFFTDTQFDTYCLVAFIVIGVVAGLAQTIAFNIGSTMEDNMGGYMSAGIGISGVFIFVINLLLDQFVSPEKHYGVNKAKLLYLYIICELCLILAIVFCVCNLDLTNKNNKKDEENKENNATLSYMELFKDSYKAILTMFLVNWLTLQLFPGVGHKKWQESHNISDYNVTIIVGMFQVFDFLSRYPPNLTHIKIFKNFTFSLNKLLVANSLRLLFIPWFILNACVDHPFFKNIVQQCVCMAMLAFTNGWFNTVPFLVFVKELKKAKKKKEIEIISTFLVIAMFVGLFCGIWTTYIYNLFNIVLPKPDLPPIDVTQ

`CC(C)C[C@H](NC(=O)[C@H]1O[C@@H]1C(=O)O)C(=O)NCCCCN=C(N)N` [E-64] was tested, and the “Effect on rate of DV alkalinisation / H+ leak (in words)” value [1] was “caused a H^+ leak” and the “Effect on rate of DV alkalinisation / H+ leak (in words)” value [2] was “neither peptide exerted an effect”.
Work on `CC(C)(C)NC(=O)[C@@H]1CN(Cc2cccnc2)CCN1C[C@@H](O)C[C@@H](Cc1ccccc1)C(=O)N[C@H]1c2ccccc2C[C@H]1O` [Indinavir, indinavir] yielded an IC50 (C2^GC03 parasites; [4]) of 1.2 ± 0.8 µM, an IC50 (C2^GC03 parasites; [5]) of 4.2 ± 0.2 µM and an IC50 (3D7 strain; [6]) of 4.1 ± 0.1 µM. It also gave an IC50 (3D7 strain; [7]) of 2.1 ± 0.8 µM, an IC50 (7G8 strain; [8]) of 2.5 ± 0.2 µM and an IC50 (7G8 strain; [9]) of 0.5 ± 0.06 µM. The IC50 (C4^Dd2 parasites; [10]) was 2.2 ± 0.1 µM, the IC50 (C6^7G8 parasites; [11]) was 1.1 ± 0.05 µM and the IC50 (C6^7G8 parasites; [12]) was 0.4 ± 0.02 µM.
With `CC(=O)N[C@@H](CC(C)C)C(=O)N[C@@H](CC(C)C)C(=O)N[C@H](C=O)CCCNC(=N)N` [Leupeptin, leupeptin] the “Effect on rate of DV alkalinisation / H+ leak (in words)” value [1] was “caused a H^+ leak”, the “Effect on rate of DV alkalinisation / H+ leak (in words)” value [3] was “induced a H^+ leak” and the “Effect on rate of DV alkalinisation / H+ leak (in words)” value [2] was “neither peptide exerted an effect”.
`Cc1c(O)cccc1C(=O)N[C@@H](CSc1ccccc1)[C@H](O)CN1C[C@H]2CCCC[C@H]2C[C@H]1C(=O)NC(C)(C)C` [Nelfinavir, nelfinavir] showed an IC50 (C2^GC03 parasites; [4]) of 4.6 ± 0.3 µM, an IC50 (C2^GC03 parasites; [5]) of 13.1 ± 0.8 µM and an IC50 (3D7 strain; [6]) of 15.3 ± 1.2 µM. For the same molecule, the IC50 (3D7 strain; [7]) was 5.6 ± 0.8 µM, the IC50 (7G8 strain; [8]) was 7.3 ± 0.6 µM and the IC50 (7G8 strain; [9]) was 3.1 ± 0.3 µM. It also gave an IC50 (C4^Dd2 parasites; [10]) of 4.1 ± 0.1 µM, an IC50 (C4^Dd2 parasites; read-out: IC50 (μM), parasite proliferation, + 1 μM VP, C4Dd2, + 1 μM verapamil, 72 h, mean ± SEM, n = 5) of 0.7 ± 0.03 µM and an IC50 (C6^7G8 parasites; [11]) of 6.2 ± 0.3 µM. It also gave an IC50 (C6^7G8 parasites; [12]) of 1.4 ± 0.1 µM, an IC50 (Dd2 strain; Plasmodium falciparum, DD2, 72 h, read-out: IC50 (μM), parasite proliferation, Control, SEM) of 5.7 ± 0.5 µM and an IC50 (Dd2 strain; read-out: IC50 (μM), parasite proliferation, + 1 μM VP, Dd2, + 1 μM verapamil, 72 h, mean ± SEM, n = 5) of 0.5 ± 0.02 µM.
With `O=c1[nH]cnc2nc[nH]c12` [[3H]hypoxanthine] the “[3H]hypoxanthine transport into the oocyte, non-expressing oocytes” value (non-expressing oocytes) was 12.63 % PfNT1 and 13.63 % PfNT1 and 15.33 % PfNT1 and 10.43 % PfNT1 and 11.43 % PfNT1 and the “[3H]hypoxanthine transport into the oocyte, PfNT1” value (PfNT1) was 100 % PfNT1.
`Cc1cccc(C)c1OCC(=O)N[C@@H](Cc1ccccc1)[C@@H](O)C[C@H](Cc1ccccc1)NC(=O)[C@H](C(C)C)N1CCCNC1=O` [lopinavir] was tested, and the “Effect on rate of DV alkalinisation / H+ leak (in words)” value [1] was “without effect”, the “Effect on rate of DV alkalinisation / H+ leak (in words)” value [3] was “without effect” and the “Effect on rate of DV alkalinisation / H+ leak (in words)” value [2] was “without effect”.
`CC(C)c1nc(CN(C)C(=O)N[C@H](C(=O)N[C@@H](Cc2ccccc2)C[C@H](O)[C@H](Cc2ccccc2)NC(=O)OCc2cncs2)C(C)C)cs1` [ritonavir] was tested, and the “Effect on rate of DV alkalinisation / H+ leak (in words)” value [1] was “without effect”, the “Effect on rate of DV alkalinisation / H+ leak (in words)” value [3] was “without effect” and the “Effect on rate of DV alkalinisation / H+ leak (in words)” value [2] was “without effect”.
